From patent publication US10858335B2 (Rigel Pharmaceuticals, Inc., priority 2014, dated 2020)

Each compound was assayed on GDF8 signaling (p-SMAD-3 (Ser423/425)) (assay: AlphaScreen SureFire SMAD3 (p-Ser423/425) assay, GDF8-stimulated cells (GDF pSMAD)). Conditions: MPC11; GDF8-stimulated; p-SMAD3 AlphaScreen; read-out: GDF pSMAD (MPC11) (inhibition of GDF8 signaling).
Format: cell-based

IC50 [µM]	SMILES
0.0774	Nc1ncnc2ccc(-c3cccnc3-c3cc(Cl)ccc3F)cc12 [compound 818, 6-(2-(5-Chloro-2-fluorophenyl)pyridin-3-yl)quinazolin-4-amine]

Same assay, conditions: Mus musculus, MPC-11, GDF8-stimulated pSMAD3, MPC11; tested as the salt form given; read-out: GDF pSMAD (MPC11) (μM), inhibition of GDF8 signaling

IC50 [µM]	SMILES
0.175	Cc1cc(-c2ncccc2-c2ccc3ncnc(N)c3c2)ccc1F [compound 1021, 6-(2-(4-fluoro-3-methylphenyl)pyridin-3-yl)quinazolin-4-amine]
0.473	Cc1cc(-c2ncccc2-c2ccc3ncsc3c2)c(C)cc1F [compound 1061]
0.735	Nc1ncnc2ccc(-c3cccnc3-c3cc(O)ccc3F)cc12 [compound 1006, 3-(3-(4-aminoquinazolin-6-yl)pyridin-2-yl)-4-fluorophenol]

Same assay, conditions: Mus musculus, MPC-11, MPC11; GDF8-stimulated; p-SMAD3 AlphaScreen; read-out: GDF pSMAD (MPC11) (inhibition of GDF8 signaling)

IC50 [µM]	SMILES
0.228	Cn1cnc2ccc(-c3cccnc3-c3cccc(Cl)c3)cc2c1=O [compound 391, 6-(2-(3-Chlorophenyl)pyridin-3-yl)-3-methylquinazolin-4(3H)-one]
0.621	NC(=O)c1cnc2ccc(-c3cccnc3-c3ccc(F)c(C4CC4)c3)cn12 [compound 224, 6-(2-(3-Cyclopropyl-4-fluorophenyl)pyridin-3-yl)imidazo[1,2-a]pyridine-3-carboxamide]
8.83	Cc1cc(-c2ncccc2-c2ccc3cnccc3c2)ccc1F [compound 249, 6-(2-(4-Fluoro-3-methylphenyl)pyridin-3-yl)isoquinoline]
0.398	Cc1cc(-c2ncccc2-c2ccc3ncnc(Oc4ccc5ncccc5c4)c3c2)ccc1F [compound 446, 6-(2-(4-Fluoro-3-methylphenyl)pyridin-3-yl)-4-(quinolin-6-yloxy)quinazoline]
0.083	Nc1cnc(-c2cccc(C3CC3)c2)c(-c2ccc3ncsc3c2)c1 [Compound 19, 5-(Benzo[d]thiazol-6-yl)-6-(3-cyclopropylphenyl)pyridin-3-amine]
0.285	Cc1cc(-c2ncccc2-c2ccc3ncnc(OCCN4CCN(C)CC4)c3c2)ccc1F [compound 433, 6-(2-(4-Fluoro-3-methylphenyl)pyridin-3-yl)-4-(2-(4-methylpiperazin-1-yl)ethoxy)quinazoline]
14.4	Cc1cc(-c2ncccc2-c2ccn3c(C(=O)NCCN(C)C)ncc3c2)ccc1F [compound 268, N-(2-(Dimethylamino)ethyl)-7-(2-(4-fluoro-3-methylphenyl)pyridin-3-yl)imidazo[1,5-a]pyridine-3-carboxamide]
3.06	COc1ncnc2ccc(-c3cccnc3-c3cc(Cl)ccc3F)cc12 [compound 820, 6-(2-(5-Chloro-2-fluorophenyl)pyridin-3-yl)-4-methoxyquinazoline]
0.524	Cc1cc(-c2ncc(NCc3ccc(S(N)(=O)=O)cc3)cc2-c2ccc3ncsc3c2)ccc1F [compound 359, 4-(((5-(Benzo[d]thiazol-6-yl)-6-(4-fluoro-3-methylphenyl)pyridin-3-yl)amino)methyl)benzenesulfonamide]
0.411	Cc1cc(-c2ncc(NCc3ccc(O)c(C(F)(F)F)c3)cc2-c2ccc3ncsc3c2)ccc1F [compound 370, 4-(((5-(Benzo[d]thiazol-6-yl)-6-(4-fluoro-3-methylphenyl)pyridin-3-yl)amino)methyl)-2-(trifluoromethyl)phenol]
3.73	Fc1ccc(-c2ncccc2-c2ccc3ncnc(Nc4ccncc4)c3c2)cc1Cl [compound 492, 6-(2-(3-Chloro-4-fluorophenyl)pyridin-3-yl)-N-(pyridin-4-yl)quinazolin-4-amine]
0.593	Cc1cc(-c2ncccc2-c2ccn3ncc(C(=O)NCCCN)c3c2)ccc1F [compound 684, N-(3-Aminopropyl)-5-(2-(4-fluoro-3-methylphenyl)pyridin-3-yl)pyrazolo[1,5-a]pyridine-3-carboxamide]
1.27	Cc1cc(-c2ncc(NCc3cccc(N4CCOCC4)c3)cc2-c2ccc3ncsc3c2)ccc1F [compound 354, 5-(Benzo[d]thiazol-6-yl)-6-(4-fluoro-3-methylphenyl)-N-(3-morpholinobenzyl)pyridin-3-amine]
1.86	Cc1cc(-c2ncccc2-c2ccc3ncnc(Oc4ccc(C#N)cc4)c3c2)ccc1F [compound 440, 4-((6-(2-(4-Fluoro-3-methylphenyl)pyridin-3-yl)quinazolin-4-yl)oxy)benzonitrile]
1.2	Cc1cc(-c2ncc(NCc3ccc(N4CCN(C)CC4)cc3)cc2-c2ccc3ncsc3c2)ccc1F [compound 373, 5-(Benzo[d]thiazol-6-yl)-6-(4-fluoro-3-methylphenyl)-N-(4-(4-methylpiperazin-1-yl)benzyl)pyridin-3-amine]
1.06	Cc1cc(-c2ncccc2-c2ccn3ncc(C#N)c3n2)ccc1F [compound 901, 5-(2-(4-Fluoro-3-methylphenyl)pyridin-3-yl)pyrazolo[1,5-a]pyrimidine-3-carbonitrile]
0.138	Cc1cc(-c2ncccc2-c2ccc3ncc(C(=O)NC4CCN(C(C)C)CC4)n3c2)ccc1F [compound 700, 6-(2-(4-Fluoro-3-methylphenyl)pyridin-3-yl)-N-(1-isopropylpiperidin-4-yl)imidazo[1,2-a]pyridine-3-carboxamide]
1.31	N#Cc1cccc(-c2ncccc2-c2cnc3[nH]ncc3c2)c1 [Compound 154, 3-(3-(1H-Pyrazolo[3,4-b]pyridin-5-yl)pyridin-2-yl)benzonitrile]
0.137	Cc1cc(-c2ncccc2-c2ccc3ncc(C)n3c2)ccc1F [compound 527, 6-(2-(4-Fluoro-3-methylphenyl)pyridin-3-yl)-3-methylimidazo[1,2-a]pyridine]

IC50 [µM]	SMILES
0.252	CN1CCC(NC(=O)c2cnc3ccc(-c4cccnc4-c4ccc(F)c(Cl)c4)cn23)CC1 [compound 709, 6-(2-(3-Chloro-4-fluorophenyl)pyridin-3-yl)-N-(1-methylpiperidin-4-yl)imidazo[1,2-a]pyridine-3-carboxamide]
9.1	Cc1cc(-c2ncccc2-c2ccc3nncn3c2)ccc1F [Compound 161, 6-(2-(4-Fluoro-3-methylphenyl)pyridin-3-yl)-[1,2,4]triazolo[4,3-a]pyridine]
9.78	Cc1cccc(-c2ncccc2-c2ccc3ncc(N4CCCC4)n3c2)c1 [compound 562, 3-(Pyrrolidin-1-yl)-6-(2-(m-tolyl)pyridin-3-yl)imidazo[1,2-a]pyridine]
0.179	COc1cccc(-c2ncccc2-c2ccc3[nH]ncc3c2)c1 [Compound 117, 5-(2-(3-Methoxyphenyl)pyridin-3-yl)-1H-indazole]
1.23	Nc1nc2ccc(-c3cccnc3-c3ccc(F)c(Cl)c3)cn2n1 [compound 291, 6-(2-(3-Chloro-4-fluorophenyl)pyridin-3-yl)-[1,2,4]triazolo[1,5-a]pyridin-2-amine]
0.0972	Cc1cc(-c2ncccc2-c2ccn3nccc3n2)ccc1F [compound 910, 5-(2-(4-Fluoro-3-methylphenyl)pyridin-3-yl)pyrazolo[1,5-a]pyrimidine]
3.37	Cc1cccc(-c2ncccc2-c2cnc3cn[nH]c3c2)c1 [Compound 139, 6-(2-m-Tolylpyridin-3-yl)-1H-pyrazolo[4,3-b]pyridine]
1.48	Cc1cc(-c2ncc(NCc3ccc(C#N)cc3)cc2-c2ccc3ncsc3c2)ccc1F [compound 309, 4-(((5-(Benzo[d]thiazol-6-yl)-6-(4-fluoro-3-methylphenyl)pyridin-3-yl)amino)methyl)benzonitrile]
2.26	Nc1nccc2ccc(-c3cccnc3-c3ccc(F)c(Cl)c3)cc12 [compound 297, 7-(2-(3-Chloro-4-fluorophenyl)pyridin-3-yl)isoquinolin-1-amine]
0.674	OCc1cnc2ccc(-c3cccnc3-c3cccc(C(F)(F)F)c3)cn12 [compound 568, (6-(2-(3-(Trifluoromethyl)phenyl)pyridin-3-yl)imidazo[1,2-a]pyridin-3-yl)methanol]
0.516	N#Cc1cnc2ccc(-c3cccnc3-c3ccc(F)c(Cl)c3)cn12 [compound 689, 6-(2-(3-Chloro-4-fluorophenyl)pyridin-3-yl)imidazo[1,2-a]pyridine-3-carbonitrile]
5.5	Cc1cc(-c2ncc(NC(=O)CCCc3ccncc3)cc2-c2ccc3ncsc3c2)ccc1F [compound 317, N-(5-(Benzo[d]thiazol-6-yl)-6-(4-fluoro-3-methylphenyl)pyridin-3-yl)-4-(pyridin-4-yl)butanamide]
0.881	Cn1ccc(-c2cnc3ccc(-c4cccnc4-c4ccc(F)c(Cl)c4)cn23)n1 [compound 853, 6-(2-(3-Chloro-4-fluorophenyl)pyridin-3-yl)-3-(1-methyl-1H-pyrazol-3-yl)imidazo[1,2-a]pyridine]
0.752	Cc1cnc(-c2cccc(C(F)(F)F)c2)c(-c2ccn3ncnc3c2)c1 [compound 867, 7-(2-(3-((Difluoro-13-methyl)-12-fluoranyl)phenyl)-5-methylpyridin-3-yl)-[1,2,4]triazolo[1,5-a]pyridine]
0.214	O=c1[nH]cnc2ccc(-c3cccnc3-c3cc(Cl)c(F)cc3F)cc12 [compound 823, 6-(2-(5-Chloro-2,4-difluorophenyl)pyridin-3-yl)quinazolin-4(3H)-one]
0.316	Cc1cc(-c2ncccc2-c2cnc3[nH]ncc3c2)ccc1F [Compound 78, 5-(2-(4-Fluoro-3-methylphenyl)pyridin-3-yl)-1H-pyrazolo[3,4-b]pyridine]
2.43	Cc1cc(-c2ncccc2-c2ccc3ncnc(NCCCN4CCOCC4)c3c2)ccc1F [compound 424, 6-(2-(4-Fluoro-3-methylphenyl)pyridin-3-yl)-N-(3-morpholinopropyl)quinazolin-4-amine]
0.127	Cc1cc(-c2ncccc2-c2ccc3ncnc(N)c3c2)ccc1F [compound 392, 6-(2-(4-Fluoro-3-methylphenyl)pyridin-3-yl)quinazolin-4-amine]
0.13	Cc1cc(-c2ncccc2-c2ccc3ncsc3c2)ccc1F [Compound 159, 6-(2-(4-Fluoro-3-methylphenyl)pyridin-3-yl)benzo[d]thiazole]
